These results are taken from patent US10774074B2, “2-(1-heteroarylpiperazin-4-yl)methyl-1,4-benzodioxane derivatives as alpha2C antagonists” (ORION CORPORATION, priority 2015, dated 2020).

Where a name gives a salt, the structure may show the parent alone.

In one assay the target is T1, human alpha2C receptors (Homo sapiens, UniProt P18825).
T1 construct: host or cells: CHO cells, cotransfected with pCEP-Gα16
T1 sequence (P18825 1-462): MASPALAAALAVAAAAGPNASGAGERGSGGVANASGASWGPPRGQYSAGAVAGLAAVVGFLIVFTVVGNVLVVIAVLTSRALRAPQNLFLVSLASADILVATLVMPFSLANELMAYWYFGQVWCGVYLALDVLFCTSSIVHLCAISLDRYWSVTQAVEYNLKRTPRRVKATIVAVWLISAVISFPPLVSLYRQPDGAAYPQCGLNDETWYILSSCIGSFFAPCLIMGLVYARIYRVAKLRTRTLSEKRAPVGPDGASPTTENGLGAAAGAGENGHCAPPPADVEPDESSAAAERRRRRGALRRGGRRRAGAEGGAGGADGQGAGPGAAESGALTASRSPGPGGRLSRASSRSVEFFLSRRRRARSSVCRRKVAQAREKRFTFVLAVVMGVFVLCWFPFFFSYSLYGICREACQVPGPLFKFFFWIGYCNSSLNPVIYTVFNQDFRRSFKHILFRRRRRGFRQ
In words: Determination of alpha2C antagonistic activity in vitro (FLIPR calcium assay, CHO cells). The note with it: for Kb: Kb calculated with the Cheng-Prusoff equation from IC50, adrenaline as agonist, CHO cells, human alpha2C, read-out: Alpha 2C Adrenaline Kb; for IC50: antagonism of adrenaline stimulation, CHO cells stably transfected with human alpha2C receptor and Gα16, intracellular calcium (FLIPR), read-out: Alpha 2C Adrenaline IC50. It counts as cell-based. The protocol: (§1) EXPERIMENT 1: Determination of alpha2A and alpha2C Antagonistic Activity In Vitro
(§2) Chinese hamster ovary (CHO) cells stably transfected with human alpha2A or alpha2C receptors (University of Turku, Finland) were cotransfected with the expression vector pCEP-Gα16 (Molecular Devices, CA, USA) were used in this experiment. The cells were maintained at 37° C. in a 5% CO2/95% air atmosphere. The cells were cultured in HAM F-12 medium supplemented with 10% FCS, 25 mM HEPES, 100 IU/ml penicillin, 100 µg/ml streptomycin, 500 μg/ml geneticin and 240 μg/ml hygromycin B. The cells were subcultured twice weekly with 0.25% trypsin and 1 mM EDTA. The subculture ratio was 1:5-1:20. The growth medium was changed every 2 or 3 days. All cell culture reagents were from Gibco. The day before the experiment the cells were plated into black-walled, clear bottom 384-well plates at a density of 10,000 cells/well.
(§3) The growth medium was removed and the cells were incubated with the test compounds and the FLIPR Calcium 6 Assay reagent (Molecular Devices, CA, USA) for 2 h at 37° C. in dark. The test compounds (concentrations in cells 100 pM-10 μM) were dissolved in Probenecid-Ringer consisting of 150 mM NaCl, 3 mM KCl, 1.2 mM MgCl2, 1 mM CaCl2, 5 mM glucose, 20 mM HEPES and 2.5 mM probenecid (pH 7.4 adjusted with 1.0 M NaOH). The osmolarity was adjusted to 322 milliosmoles with Osmostat® OM-6020 osmometer (DIC Kyoto Daiichi Kagagu Co. Ltd, Japan). […] All experiments were performed at 37° C. For agonism measurements the test compounds dissolved in Probenecid-Ringer were applied by FLIPR Tetra at 15 s time point. In order to determine antagonism, the cells were stimulated either with 100 nM adrenaline or noradrenaline and the test compounds were added to the cells 2 h before the experiment with the FLIPR Calcium 6 Assay reagent. […] Typically, there were four replicates at each concentration and six different dose levels. For example, if the number of plates from which results were obtained was three, 72 (4*6*3) wells were thus measured to construct dose-response relationship. The samples were excited at 485 nm and emission was detected at 525 nm with a 515 nm cut-off filter. The minimum fluorescence value subtracted from the maximum value for each well was used in the calculations. ScreenWorks version 4.0 software was used for analyzing the results. Fitting of the antagonist dose-response results was performed with the free Hill equation and the IC50 values were fitted with IDBS XE software using model 200: y=(A+(B/(1+((x/C)^D)))), where A is the curve maximum, B the curve minimum and C equals the EC50 value. D is slope factor (Hill). Kb was calculated with the Cheng-Prusoff equation Kb=A/((B/C)+1), where A is the IC50 of antagonist, B the concentration of agonist and C the EC50 of the agonist.

For a further assay, the target named is T2, human alpha2A receptors (Homo sapiens, UniProt P08913).
T2 construct: host or cells: CHO cells, cotransfected with pCEP-Gα16
T2 sequence (P08913 1-465): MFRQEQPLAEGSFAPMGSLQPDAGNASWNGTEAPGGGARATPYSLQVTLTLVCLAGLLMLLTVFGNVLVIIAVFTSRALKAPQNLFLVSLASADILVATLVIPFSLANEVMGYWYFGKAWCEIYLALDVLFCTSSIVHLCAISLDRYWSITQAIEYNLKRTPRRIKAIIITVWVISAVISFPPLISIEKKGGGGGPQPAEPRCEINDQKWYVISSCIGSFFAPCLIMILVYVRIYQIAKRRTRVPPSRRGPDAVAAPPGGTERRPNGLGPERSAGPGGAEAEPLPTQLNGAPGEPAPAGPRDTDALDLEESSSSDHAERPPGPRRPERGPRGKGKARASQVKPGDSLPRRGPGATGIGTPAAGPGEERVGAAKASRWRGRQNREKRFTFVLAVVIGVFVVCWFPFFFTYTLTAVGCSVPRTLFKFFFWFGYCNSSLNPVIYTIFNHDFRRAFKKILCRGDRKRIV
Kind of assay: Determination of alpha2A antagonistic activity in vitro (FLIPR calcium assay, CHO cells). In kind it is cell-based. The conditions noted are these: for Kb: Kb calculated with the Cheng-Prusoff equation from IC50, adrenaline as agonist, CHO cells, human alpha2A, read-out: Alpha 2A Adrenaline Kb; for IC50: antagonism of adrenaline stimulation, CHO cells stably transfected with human alpha2A receptor and Gα16, intracellular calcium (FLIPR), read-out: Alpha 2A Adrenaline IC50. The protocol: as §1, §2, §3

For the molecule `O=C1CCCN1c1ncsc1N1CCN(C[C@H]2COc3ccccc3O2)CC1` [Compound of example 20, (S)-1-(5-(4-((2,3-Dihydrobenzo[b][1,4]dioxin-2-yl)methyl)piperazin-1-yl)thiazol-4-yl)pyrrolidin-2-one], on human alpha2C receptors, the Kb is 0.394 nM and the IC50 worked out at 0.04 nM. Moreover, on human alpha2A receptors, the Kb was 405 nM and the IC50 was found to be 9020 nM.

As to `Cc1c(N2CCN(C)C2=O)c(N2CCN(C[C@H]3COc4ccccc4O3)CC2)nn1C` [Compound of example 15, (S)-1-(3-(4-((2,3-Dihydrobenzo[b][1,4]dioxin-2-yl)methyl)piperazin-1-yl)-1,5-dimethyl-1H-pyrazol-4-yl)-3-methylimidazolidin-2-one], on human alpha2C receptors, the Kb was 1.64 nM and the IC50 was 0.17 nM. Further, on human alpha2A receptors, the Kb is greater than 449 nM and the IC50 was greater than 10000 nM.

In the case of `c1ccc(COc2ncccc2Nc2nsnc2N2CCN(C[C@H]3COc4ccccc4O3)CC2)cc1` [Compound of example 37, (S)—N-(2-(Benzyloxy)pyridin-3-yl)-4-(4-((2,3-dihydrobenzo[b][1,4]-dioxin-2-yl)methyl)piperazin-1-yl)-1,2,5-thiadiazol-3-amine hydrochloride], on human alpha2C receptors, the Kb was 73.1 nM and the IC50 was found to be 7.36 nM. In addition, on human alpha2A receptors, the Kb was greater than 449 nM and the IC50 is greater than 10000 nM.

In the case of `Cc1c(N2CCCC2=O)c(N2CCN(C[C@H]3COc4ccccc4O3)CC2)nn1C` [Compound of example 14, (S)-1-(3-(4-((2,3-Dihydrobenzo[b][1,4]dioxin-2-yl)methyl)piperazin-1-yl)-1,5-dimethyl-1H-pyrazol-4-yl)pyrrolidin-2-one], at human alpha2C receptors, the Kb is 0.29 nM and the IC50 came to 0.03 nM. In addition, on human alpha2A receptors, the Kb is 382 nM and the IC50 was found to be 8520 nM.

Turning to `COCc1scnc1N1CCN(C[C@H]2COc3ccccc3O2)CC1` [Compound of example 8, (S)-4-(4-((2,3-Dihydrobenzo[b][1,4]dioxin-2-yl)methyl)piperazin-1-yl)-5-(methoxymethyl)thiazole], at human alpha2C receptors, the Kb was less than 0.1 nM and the IC50 was less than 0.01 nM. In addition, at human alpha2A receptors, the Kb was 88 nM and the half-maximal inhibitory concentration (IC50) came out at 1970 nM.

Turning to `O=C1NCCN1c1nnc(N2CCN(C[C@H]3COc4ccccc4O3)CC2)s1` [Compound of example 25, (S)-1-(5-(4-((2,3-Dihydrobenzo[b][1,4]dioxin-2-yl)methyl)piperazin-1-yl)-1,3,4-thiadiazol-2-yl)imidazolidin-2-one], on human alpha2C receptors, the Kb was 28.4 nM and the IC50 stood at 2.86 nM. Also, on human alpha2A receptors, the Kb was 514 nM and the IC50 turned out to be 11500 nM.

`c1ccc(-n2nccc2N2CCN(C[C@H]3COc4ccccc4O3)CC2)nc1` [Compound of example 10, (S)-1-((2,3-Dihydrobenzo[b][1,4]dioxin-2-yl)methyl)-4-(1-(pyridin-2-yl)-1H-pyrazol-5-yl)piperazine]: on human alpha2C receptors, the Kb was 1.14 nM and the IC50 is 0.113 nM. Moreover, at human alpha2A receptors, the Kb was 350 nM and the IC50 came out at 7810 nM.

As for `Cc1c(N2CCNC2=O)c(N2CCN(C[C@H]3COc4ccccc4O3)CC2)nn1C` [Compound of example 9, (S)-1-(3-(4-((2,3-Dihydrobenzo[b][1,4]dioxin-2-yl)methyl)piperazin-1-yl)-1,5-dimethyl-1H-pyrazol-4-yl)imidazolidin-2-one], on human alpha2C receptors, the Kb is 0.55 nM and the IC50 worked out at 0.06 nM. Besides, on human alpha2A receptors, the antagonist dissociation constant (Kb) is greater than 449 nM and the IC50 is greater than 10000 nM.

Consider `O=C1NCCN1c1nsnc1N1CCN(C[C@H]2COc3ccccc3O2)CC1` [Compound of example 30, (S)-1-(4-(4-((2,3-Dihydrobenzo[b][1,4]dioxin-2-yl)methyl)piperazin-1-yl)-1,2,5-thiadiazol-3-yl)imidazolidin-2-one], for which the Kb on human alpha2C receptors was 0.527 nM; at human alpha2A receptors, greater than 449 nM. Moreover, the values for the IC50 at human alpha2C receptors and on human alpha2A receptors were 0.054 nM and greater than 10000 nM, respectively.

As to `CN1CCN(c2nsnc2N2CCN(C[C@H]3COc4ccccc4O3)CC2)C1=O` [Compound of example 28, (S)-1-(4-(4-((2,3-Dihydrobenzo[b][1,4]dioxin-2-yl)methyl)piperazin-1-yl)-1,2,5-thiadiazol-3-yl)-3-methylimidazolidin-2-one], the Kb on human alpha2C receptors is 1070 nM; on human alpha2A receptors, greater than 449 nM. In addition, the IC50 is 108 nM on human alpha2C receptors and greater than 10000 nM at human alpha2A receptors.

For `CCOC(=O)c1c(N2CCN(C[C@H]3COc4ccccc4O3)CC2)nn(C)c1C` [Compound of example 12, (S)-Ethyl 3-(4-((2,3-dihydrobenzo[b][1,4]dioxin-2-yl)methyl)piperazin-1-yl)-1,5-dimethyl-1H-pyrazole-4-carboxylate], the Kb on human alpha2C receptors is 2.13 nM; at human alpha2A receptors, 120 nM. Further, the figures for the IC50 at human alpha2C receptors and on human alpha2A receptors were 0.21 nM and 2680 nM, respectively.

On to `Cc1c(N2CCC2=O)c(N2CCN(C[C@H]3COc4ccccc4O3)CC2)nn1C` [Compound of example 4, (S)-1-(3-(4-((2,3-Dihydrobenzo[b][1,4]dioxin-2-yl)methyl)piperazin-1-yl)-1,5-dimethyl-1H-pyrazol-4-yl)azetidin-2-one], for which, on human alpha2C receptors, the Kb is 0.13 nM and the IC50 was 0.01 nM. Further, the Kb at human alpha2A receptors was 217 nM.

On to `NC(=O)c1nsnc1N1CCN(C[C@H]2COc3ccccc3O2)CC1` [Compound of example 27, (S)-4-(4-((2,3-Dihydrobenzo[b][1,4]dioxin-2-yl)methyl)piperazin-1-yl)-1,2,5-thiadiazole-3-carboxamide], for which, on human alpha2C receptors, the Kb is 1650 nM and the IC50 was determined as 166 nM. At human alpha2A receptors, the Kb was greater than 449 nM and the IC50 was greater than 10000 nM.

Turning to `COCc1c(N2CCN(C[C@H]3COc4ccccc4O3)CC2)nn(C)c1C` [Compound of example 11, (S)-1-((2,3-Dihydrobenzo[b][1,4]dioxin-2-yl)methyl)-4-(4-(methoxymethyl)-1,5-dimethyl-1H-pyrazol-3-yl)piperazine], on human alpha2C receptors, the Kb was 1.62 nM and the IC50 turned out to be 0.165 nM. On human alpha2A receptors, the Kb is 306 nM and the IC50 is 6810 nM.

In the case of `CC(=O)Nc1nsnc1N1CCN(C[C@H]2COc3ccccc3O2)CC1` [Compound of example 16, (S)—N-(4-(4-((2,3-Dihydrobenzo[b][1,4]dioxin-2-yl)methyl)piperazin-1-yl)-1,2,5-thiadiazol-3-yl)acetamide], the figures for the Kb at human alpha2C receptors and on human alpha2A receptors were 4210 nM and greater than 449 nM, respectively. Moreover, the figures for the IC50 on human alpha2C receptors and at human alpha2A receptors were 424 nM and greater than 10000 nM, respectively.
